Experimental data taken from patent publication US10494332B2, “Protein tyrosine phosphatases or SHP2 inhibitors and uses thereof” (Indiana University Research and Technology Corporation, priority 2015, dated 2019).

How the values were obtained:
Assay type in all cases: biochemical
PTP1B = target: T1, PTP1B (Homo sapiens, UniProt P18031); assay: PTP inhibition assay (pNPP); conditions: pNPP at Km, pH 7.0, 25° C.
T1 sequence (P18031 1-435): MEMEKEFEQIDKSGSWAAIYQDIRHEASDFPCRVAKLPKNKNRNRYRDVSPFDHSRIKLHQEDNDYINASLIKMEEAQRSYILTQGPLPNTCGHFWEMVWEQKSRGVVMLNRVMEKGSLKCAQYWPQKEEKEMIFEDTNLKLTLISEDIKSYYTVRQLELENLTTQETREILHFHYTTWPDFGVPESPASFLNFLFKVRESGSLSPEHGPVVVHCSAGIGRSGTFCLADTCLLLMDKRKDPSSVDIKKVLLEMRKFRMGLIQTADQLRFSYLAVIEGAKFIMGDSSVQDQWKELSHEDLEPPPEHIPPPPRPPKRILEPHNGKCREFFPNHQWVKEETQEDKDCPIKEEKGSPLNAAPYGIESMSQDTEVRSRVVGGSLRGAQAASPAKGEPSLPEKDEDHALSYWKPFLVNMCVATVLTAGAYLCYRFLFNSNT

SHP2 = target: T2, SHP2 (Homo sapiens, UniProt Q06124); assay: SHP2 phosphatase inhibition assay (pNPP); conditions: pNPP at Km, pH 7.0, 25° C.; read-out: IC50 SHP2
T2 sequence (Q06124 224-528): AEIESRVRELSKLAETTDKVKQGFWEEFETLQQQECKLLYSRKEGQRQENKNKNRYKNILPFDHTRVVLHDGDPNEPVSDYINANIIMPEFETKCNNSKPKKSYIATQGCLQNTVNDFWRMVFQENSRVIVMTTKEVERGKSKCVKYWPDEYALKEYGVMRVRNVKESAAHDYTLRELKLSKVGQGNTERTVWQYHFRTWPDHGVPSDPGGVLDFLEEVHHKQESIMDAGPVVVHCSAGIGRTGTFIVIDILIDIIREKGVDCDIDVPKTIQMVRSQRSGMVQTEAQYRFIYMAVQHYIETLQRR

CD45 = target: T3, CD45 (Homo sapiens, UniProt P08575); assay: PTP inhibition assay (pNPP); conditions: pNPP at Km, pH 7.0, 25° C.
T3 sequence (P08575 26-1306): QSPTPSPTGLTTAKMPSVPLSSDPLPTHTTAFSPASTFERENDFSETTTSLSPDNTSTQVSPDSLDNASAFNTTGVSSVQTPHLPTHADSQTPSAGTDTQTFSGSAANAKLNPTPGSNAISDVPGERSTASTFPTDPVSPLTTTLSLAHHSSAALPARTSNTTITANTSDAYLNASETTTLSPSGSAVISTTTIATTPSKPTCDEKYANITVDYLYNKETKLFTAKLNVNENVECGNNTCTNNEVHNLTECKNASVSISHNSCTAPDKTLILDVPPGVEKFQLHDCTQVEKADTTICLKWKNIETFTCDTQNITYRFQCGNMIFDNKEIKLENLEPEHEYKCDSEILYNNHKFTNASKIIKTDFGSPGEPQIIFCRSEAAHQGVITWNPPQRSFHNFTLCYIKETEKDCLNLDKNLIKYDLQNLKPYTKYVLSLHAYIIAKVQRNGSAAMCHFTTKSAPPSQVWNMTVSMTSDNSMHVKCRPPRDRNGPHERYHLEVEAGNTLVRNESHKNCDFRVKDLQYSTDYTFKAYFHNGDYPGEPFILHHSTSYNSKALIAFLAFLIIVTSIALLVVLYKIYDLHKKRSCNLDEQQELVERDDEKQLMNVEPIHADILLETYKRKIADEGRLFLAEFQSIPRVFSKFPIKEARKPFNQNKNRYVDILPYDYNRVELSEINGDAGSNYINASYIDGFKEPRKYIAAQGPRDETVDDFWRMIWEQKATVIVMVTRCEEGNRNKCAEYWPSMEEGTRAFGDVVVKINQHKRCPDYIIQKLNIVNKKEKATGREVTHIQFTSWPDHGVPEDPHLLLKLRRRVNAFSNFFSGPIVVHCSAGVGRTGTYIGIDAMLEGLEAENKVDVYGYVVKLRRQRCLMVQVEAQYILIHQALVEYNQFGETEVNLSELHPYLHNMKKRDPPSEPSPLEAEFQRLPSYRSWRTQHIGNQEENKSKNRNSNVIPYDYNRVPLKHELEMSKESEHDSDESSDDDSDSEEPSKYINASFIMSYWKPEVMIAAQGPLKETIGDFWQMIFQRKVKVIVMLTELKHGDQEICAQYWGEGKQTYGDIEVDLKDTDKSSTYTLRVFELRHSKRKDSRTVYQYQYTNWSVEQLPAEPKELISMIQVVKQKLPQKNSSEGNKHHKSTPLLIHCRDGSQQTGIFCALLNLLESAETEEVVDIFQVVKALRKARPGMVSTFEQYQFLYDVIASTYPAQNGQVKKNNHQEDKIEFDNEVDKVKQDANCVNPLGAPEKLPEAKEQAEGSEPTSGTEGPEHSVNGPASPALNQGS

LYP = target: T4, LYP (Homo sapiens, UniProt Q9Y2R2); assay: PTP inhibition assay (pNPP); conditions: pNPP at Km, pH 7.0, 25° C.
T4 sequence (Q9Y2R2 1-807): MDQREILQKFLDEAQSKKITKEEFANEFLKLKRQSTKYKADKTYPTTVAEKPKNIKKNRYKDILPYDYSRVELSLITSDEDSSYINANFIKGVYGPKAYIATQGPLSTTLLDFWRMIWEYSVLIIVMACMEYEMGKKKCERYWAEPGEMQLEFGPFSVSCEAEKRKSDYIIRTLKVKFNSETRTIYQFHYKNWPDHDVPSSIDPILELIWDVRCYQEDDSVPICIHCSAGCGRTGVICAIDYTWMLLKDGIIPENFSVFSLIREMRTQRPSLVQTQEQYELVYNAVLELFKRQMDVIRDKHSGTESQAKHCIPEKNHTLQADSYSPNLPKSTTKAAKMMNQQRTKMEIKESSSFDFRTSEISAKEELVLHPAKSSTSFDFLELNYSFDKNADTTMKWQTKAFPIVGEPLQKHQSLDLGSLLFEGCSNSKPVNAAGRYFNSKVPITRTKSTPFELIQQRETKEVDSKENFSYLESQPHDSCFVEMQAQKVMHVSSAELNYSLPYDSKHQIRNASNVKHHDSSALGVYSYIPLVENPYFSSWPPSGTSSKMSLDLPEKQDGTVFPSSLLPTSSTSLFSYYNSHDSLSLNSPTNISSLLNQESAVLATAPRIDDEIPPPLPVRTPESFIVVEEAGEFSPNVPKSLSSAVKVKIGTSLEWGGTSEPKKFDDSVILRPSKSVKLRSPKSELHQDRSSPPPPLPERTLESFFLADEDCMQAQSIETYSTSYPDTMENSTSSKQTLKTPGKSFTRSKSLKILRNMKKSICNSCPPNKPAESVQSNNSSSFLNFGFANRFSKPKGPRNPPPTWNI

Laforin = target: T5, Laforin (Homo sapiens, UniProt O95278); assay: PTP inhibition assay (pNPP); conditions: for IC50: pNPP at Km, pH 7.0, 25° C., read-out: IC50 Laforin
T5 sequence (O95278 1-331): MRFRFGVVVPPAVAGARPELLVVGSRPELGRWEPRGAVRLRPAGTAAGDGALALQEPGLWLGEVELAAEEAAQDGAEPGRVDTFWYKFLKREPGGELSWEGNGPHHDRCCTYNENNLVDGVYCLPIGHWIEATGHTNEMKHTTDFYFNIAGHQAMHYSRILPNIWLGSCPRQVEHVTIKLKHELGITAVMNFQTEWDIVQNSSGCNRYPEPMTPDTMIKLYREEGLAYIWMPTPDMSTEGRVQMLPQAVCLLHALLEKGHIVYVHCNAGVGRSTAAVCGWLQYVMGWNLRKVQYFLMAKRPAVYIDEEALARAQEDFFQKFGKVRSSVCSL

LMWPTP = target: T6, LMWPTP (Homo sapiens, UniProt P24666); assay: PTP inhibition assay (pNPP); conditions: pNPP at Km, pH 7.0, 25° C.
T6 sequence (P24666 1-158): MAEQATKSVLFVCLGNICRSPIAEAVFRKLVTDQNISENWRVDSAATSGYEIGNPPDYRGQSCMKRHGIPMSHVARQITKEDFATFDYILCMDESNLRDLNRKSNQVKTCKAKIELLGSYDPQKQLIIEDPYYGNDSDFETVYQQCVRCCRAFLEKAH

Row | Structure (SMILES) | IC50 (PTP1B) [µM] | IC50 (SHP2) [µM] | IC50 (CD45) [µM] | IC50 (LYP) [µM] | IC50 (Laforin) [µM] | IC50 (LMWPTP) [µM] | Inhibition of Laforin at 100 μM (Laforin; 100 μM) | Inhibition of Laforin at 200 μM (Laforin; 200 μM)
1 | O=C(Nc1nccs1)C(c1ccccc1)S(=O)(=O)O (centres unmarked) [Compound L319N13] | > 100 | > 100 | > 100 | > 100 | 8 | – | – | –
2 | O=C(Nc1nc(-c2ccccc2)cs1)C(c1ccccc1)S(=O)(=O)O (centres unmarked) [Compound L319N14] | 160 | 31 | 70 | 15 | 6 | 20 | – | –
3 | O=C(Nc1nc2c(Cl)cccc2s1)C(c1ccccc1)S(=O)(=O)O (centres unmarked) [Compound L319N15-01] | 70 | 41 | – | 22 | 2.2 | 4.6 | – | –
4 | Cc1cccc2sc(NC(=O)C(c3ccccc3)S(=O)(=O)O)nc12 (centres unmarked) [Compound L319N15-02] | > 200 | 129 | > 200 | 110 | 4 | 9.6 | – | –
5 | COc1cccc2sc(NC(=O)C(c3ccccc3)S(=O)(=O)O)nc12 (centres unmarked) [Compound L319N15-03] | > 200 | > 200 | > 200 | > 200 | 1.2 | 7.6 | – | –
6 | Cc1cc2nc(NC(=O)C(c3ccccc3)S(=O)(=O)O)sc2cc1C (centres unmarked) [Compound L319N15-04] | > 200 | 112 | > 200 | 90 | 1.1 | 4.8 | – | –
7 | O=C(Nc1nc2ccc(F)cc2s1)C(c1ccccc1)S(=O)(=O)O (centres unmarked) [Compound L319N15-05] | > 200 | 173 | > 200 | 150 | 1.7 | 4.2 | – | –
8 | O=C(Nc1nc2ccc(Cl)cc2s1)C(c1ccccc1)S(=O)(=O)O (centres unmarked) [Compound L319N15-06] | 80 | 30 | 130 | 23 | 2.3 | 5.6 | – | –
9 | O=C(Nc1nc2ccc(O[N+](=O)[O-])cc2s1)C(c1ccccc1)S(=O)(=O)O (centres unmarked) [Compound L319N15-07] | > 200 | > 200 | > 200 | > 100 | > 200 | 2.1 | no detectable inhibition | –
10 | Cc1ccc2nc(NC(=O)C(c3ccccc3)S(=O)(=O)O)sc2c1 (centres unmarked) [Compound L319N15-08] | > 200 | > 200 | > 200 | > 200 | 2 | 8.2 | – | –
11 | O=C(Nc1nc2ccc(OC(F)(F)F)cc2s1)C(c1ccccc1)S(=O)(=O)O (centres unmarked) [Compound L319N15-09] | 160 | 47 | 80 | 20 | 3.2 | 5.3 | – | –
12 | COc1ccc2nc(NC(=O)C(c3ccccc3)S(=O)(=O)O)sc2c1 (centres unmarked) [Compound L319N15-10] | > 200 | > 200 | > 200 | > 200 | 2.1 | 5.8 | – | –
13 | CCOC(=O)c1ccc2nc(NC(=O)C(c3ccccc3)S(=O)(=O)O)sc2c1 (centres unmarked) [Compound L319N15-11] | – | 55 | 70 | 28 | 1.7 | 3.03 | – | –
14 | Nc1ccc2nc(NC(=O)C(c3ccccc3)S(=O)(=O)O)sc2c1 (centres unmarked) [Compound L319N15-12] | > 200 | 190 | 160 | 166 | 3.3 | 14 | – | –
15 | O=C(O)c1ccc2nc(NC(=O)C(c3ccccc3)S(=O)(=O)O)sc2c1 (centres unmarked) [Compound L319N15-13] | > 200 | 83 | 90 | 31 | > 200 | 70 | – | did not inhibit
16 | O=C(Nc1nc2ccccc2s1)C(c1ccc(Br)cc1)S(=O)(=O)O (centres unmarked) [Compound L319N15-14] | > 200 | > 200 | > 200 | > 200 | 19 | > 200 | – | –
17 | O=C(Nc1nc2ccccc2s1)C(c1ccc([N+](=O)[O-])cc1)S(=O)(=O)O (centres unmarked) [Compound L319N15-16] | > 200 | 135 | > 200 | 180 | 66 | > 200 | – | –
18 | O=C(Nc1nc2ccccc2s1)C(c1ccccc1F)S(=O)(=O)O (centres unmarked) [Compound L319N15-17] | > 100 | > 100 | > 100 | > 100 | 14 | > 100 | – | –
